In ChEMBL document CHEMBL1255475, “Mutant prevention concentrations of four carbapenems against gram-negative rods” (2010):
In brackets after ≈: the same amount, converted by molar mass.

Tests used:
Escherichia coli [1] = experiment: Ratio of mutant prevention concentration to minimum Inhibitory concentration for beta-lactamase-positive ESBL-positive Escherichia coli E465; type: functional
Klebsiella pneumoniae [2] = experiment: Antibacterial activity against beta-lactamase-positive ESBL-negative Klebsiella pneumoniae E473 incubated up to 7 days by agar dilution method; type: functional; details: E473, 168 h
Klebsiella pneumoniae [3] = experiment: Antibacterial activity against beta-lactamase-positive ESBL-negative Klebsiella pneumoniae E474 incubated up to 7 days by agar dilution method; type: functional; details: E474, 168 h
Escherichia coli [4] = experiment: Ratio of mutant prevention concentration to minimum Inhibitory concentration for beta-lactamase-negative Escherichia coli E425; type: functional
Klebsiella pneumoniae [5] = experiment: Ratio of mutant prevention concentration to minimum Inhibitory concentration for beta-lactamase-positive ESBL-negative Klebsiella pneumoniae E480; type: functional
Klebsiella pneumoniae [6] = experiment: Ratio of mutant prevention concentration to minimum Inhibitory concentration for beta-lactamase-positive ESBL-negative Klebsiella pneumoniae E481; type: functional
Escherichia coli [7] = experiment: Ratio of mutant prevention concentration to minimum Inhibitory concentration for beta-lactamase-positive ESBL-positive Escherichia coli E450; type: functional
Klebsiella pneumoniae [8] = experiment: Ratio of mutant prevention concentration to minimum Inhibitory concentration for beta-lactamase-negative Klebsiella pneumoniae E417; type: functional
Klebsiella pneumoniae [9] = experiment: Antibacterial activity against beta-lactamase-positive ESBL-negative Klebsiella pneumoniae E509 incubated up to 7 days by agar dilution method; type: functional; details: E509, 168 h
Klebsiella pneumoniae [10] = experiment: Ratio of mutant prevention concentration to minimum Inhibitory concentration for beta-lactamase-positive ESBL-positive Klebsiella pneumoniae E475; type: functional
Klebsiella pneumoniae [11] = experiment: Ratio of mutant prevention concentration to minimum Inhibitory concentration for beta-lactamase-negative Klebsiella pneumoniae E357; type: functional
Escherichia coli [12] = experiment: Antibacterial activity against beta-lactamase-negative Escherichia coli E344 incubated up to 7 days by agar dilution method; type: functional; details: E344, 168 h
Klebsiella pneumoniae [13] = experiment: Ratio of mutant prevention concentration to minimum Inhibitory concentration for beta-lactamase-positive ESBL-negative Klebsiella pneumoniae E474; type: functional
Klebsiella pneumoniae [14] = experiment: Ratio of mutant prevention concentration to minimum Inhibitory concentration for beta-lactamase-negative Klebsiella pneumoniae E358; type: functional
Escherichia coli [15] = experiment: Antibacterial activity against beta-lactamase-negative Escherichia coli E346 incubated up to 7 days by agar dilution method; type: functional; details: E346, 168 h
Escherichia coli [16] = experiment: Ratio of mutant prevention concentration to minimum Inhibitory concentration for beta-lactamase-positive ESBL-negative Escherichia coli E484; type: functional
Escherichia coli [17] = experiment: Ratio of mutant prevention concentration to minimum Inhibitory concentration for beta-lactamase-negative Escherichia coli E345; type: functional
Escherichia coli [18] = experiment: Ratio of mutant prevention concentration to minimum Inhibitory concentration for beta-lactamase-negative Escherichia coli E347; type: functional
Klebsiella pneumoniae [19] = experiment: Ratio of mutant prevention concentration to minimum Inhibitory concentration for beta-lactamase-positive ESBL-positive Klebsiella pneumoniae E453; type: functional
Klebsiella pneumoniae [20] = experiment: Ratio of mutant prevention concentration to minimum Inhibitory concentration for beta-lactamase-positive ESBL-positive Klebsiella pneumoniae E478; type: functional
Escherichia coli [21] = experiment: Ratio of mutant prevention concentration to minimum Inhibitory concentration for beta-lactamase-positive ESBL-positive Escherichia coli E452; type: functional
Klebsiella pneumoniae [22] = experiment: Ratio of mutant prevention concentration to minimum Inhibitory concentration for beta-lactamase-positive ESBL-positive Klebsiella pneumoniae E476; type: functional
Escherichia coli [23] = experiment: Ratio of mutant prevention concentration to minimum Inhibitory concentration for beta-lactamase-positive ESBL-negative Escherichia coli E430; type: functional
Pseudomonas aeruginosa [24] = experiment: Antibacterial activity against Pseudomonas aeruginosa P356 incubated up to 7 days by agar dilution method; type: functional; details: P356, 168 h
Pseudomonas aeruginosa [25] = experiment: Antibacterial activity against Pseudomonas aeruginosa P340 incubated up to 7 days by agar dilution method; type: functional; details: P340, 168 h
Pseudomonas aeruginosa [26] = experiment: Antibacterial activity against Pseudomonas aeruginosa P365 incubated up to 7 days by agar dilution method; type: functional; details: P365, 168 h
Pseudomonas aeruginosa [27] = experiment: Antibacterial activity against Pseudomonas aeruginosa P332 incubated up to 7 days by agar dilution method; type: functional; details: P332, 168 h
Acinetobacter baumannii [28] = experiment: Antibacterial activity against Acinetobacter baumannii A911 incubated for 24 h by agar dilution method; details: A911, 24 h
Acinetobacter baumannii [29] = experiment: Antibacterial activity against Acinetobacter baumannii A867 incubated for 24 h by agar dilution method; details: A867, 24 h
Acinetobacter baumannii [30] = experiment: Antibacterial activity against Acinetobacter baumannii A885 incubated up to 7 days by agar dilution method; type: functional; details: A885, 168 h
Acinetobacter baumannii [31] = experiment: Antibacterial activity against Acinetobacter baumannii A848 incubated up to 7 days by agar dilution method; type: functional; details: A848, 168 h
Pseudomonas aeruginosa [32] = experiment: Antibacterial activity against Pseudomonas aeruginosa P352 incubated up to 7 days by agar dilution method; type: functional; details: P352, 168 h
Acinetobacter baumannii [33] = experiment: Antibacterial activity against Acinetobacter baumannii A931 incubated for 24 hrs by agar dilution method; details: A931, 24 h
Acinetobacter baumannii [34] = experiment: Antibacterial activity against Acinetobacter baumannii A892 assessed as mutant prevention concentration after overnight incubation; type: functional
Acinetobacter baumannii [35] = experiment: Antibacterial activity against Acinetobacter baumannii A865 incubated for 24 h by agar dilution method; details: A865, 24 h
Acinetobacter baumannii [36] = experiment: Antibacterial activity against Acinetobacter baumannii A903 incubated up to 7 days by agar dilution method; type: functional; details: A903, 168 h
Pseudomonas aeruginosa [37] = experiment: Antibacterial activity against Pseudomonas aeruginosa P322 incubated up to 7 days by agar dilution method; type: functional; details: P322, 168 h
Pseudomonas aeruginosa [38] = experiment: Antibacterial activity against Pseudomonas aeruginosa P320 incubated up to 7 days by agar dilution method; type: functional; details: P320, 168 h
Acinetobacter baumannii [39] = experiment: Antibacterial activity against Acinetobacter baumannii A851 incubated for 24 h by agar dilution method; details: A851, 24 h
Acinetobacter baumannii [40] = experiment: Antibacterial activity against Acinetobacter baumannii A901 incubated up to 7 days by agar dilution method; type: functional; details: A901, 168 h
Pseudomonas aeruginosa [41] = experiment: Antibacterial activity against Pseudomonas aeruginosa P334 incubated up to 7 days by agar dilution method; type: functional; details: P334, 168 h
Acinetobacter baumannii [42] = experiment: Antibacterial activity against Acinetobacter baumannii A898 incubated for 24 hrs by agar dilution method; details: A898, 24 h
Pseudomonas aeruginosa [43] = experiment: Antibacterial activity against Pseudomonas aeruginosa P337 incubated up to 7 days by agar dilution method; type: functional; details: P337, 168 h
Pseudomonas aeruginosa [44] = experiment: Antibacterial activity against Pseudomonas aeruginosa P349 incubated up to 7 days by agar dilution method; type: functional; details: P349, 168 h
Acinetobacter baumannii [45] = experiment: Antibacterial activity against Acinetobacter baumannii A867 assessed as mutant prevention concentration after overnight incubation; type: functional
Acinetobacter baumannii [46] = experiment: Antibacterial activity against Acinetobacter baumannii A912 incubated for 24 h by agar dilution method; details: A912, 24 h
Pseudomonas aeruginosa [47] = experiment: Antibacterial activity against Pseudomonas aeruginosa P327 incubated up to 7 days by agar dilution method; type: functional; details: P327, 168 h

## C[C@@H](O)[C@H]1C(=O)N2C(C(=O)O)=C(S[C@@H]3CN[C@H](C(=O)Nc4cccc(C(=O)O)c4)C3)[C@H](C)[C@H]12
Escherichia coli [1]
  Ratio: >16
Klebsiella pneumoniae [2]
  MIC: 8 µg/mL (≈ 16.8 µM)
Klebsiella pneumoniae [3]
  MIC: 4 µg/mL (≈ 8.41 µM)
Escherichia coli [4]
  Ratio: 4
Klebsiella pneumoniae [5]
  Ratio: 4
Klebsiella pneumoniae [6]
  Ratio: 2
Escherichia coli [7]
  Ratio: >16
Klebsiella pneumoniae [8]
  Ratio: 2
Klebsiella pneumoniae [9]
  MIC: 16 µg/mL (≈ 33.6 µM)
Klebsiella pneumoniae [10]
  Ratio: 2
Klebsiella pneumoniae [11]
  Ratio: 4
Escherichia coli [12]
  MIC: 0.008 µg/mL (≈ 0.0168 µM)
Klebsiella pneumoniae [13]
  Ratio: 8
Klebsiella pneumoniae [14]
  Ratio: 4
Escherichia coli [15]
  MIC: 0.008 µg/mL (≈ 0.0168 µM)
Escherichia coli [16]
  Ratio: 16
Escherichia coli [17]
  Ratio: 4
Escherichia coli [18]
  Ratio: 4
Klebsiella pneumoniae [19]
  Ratio: 2
Klebsiella pneumoniae [20]
  Ratio: 2
Escherichia coli [21]
  Ratio: 8
Klebsiella pneumoniae [22]
  Ratio: 4
Escherichia coli [23]
  Ratio: >8

## C[C@@H](O)[C@H]1C(=O)N2C(C(=O)O)=C(S[C@@H]3CN[C@H](CNS(N)(=O)=O)C3)[C@H](C)[C@H]12 [DORIPENEM]
Escherichia coli [1]
  Ratio: 16
Pseudomonas aeruginosa [24]
  MIC: 0.25 µg/mL (≈ 0.595 µM)
Pseudomonas aeruginosa [25]
  MIC: 0.125 µg/mL (≈ 0.297 µM)
Klebsiella pneumoniae [2]
  MIC: 2 µg/mL (≈ 4.76 µM)
Klebsiella pneumoniae [3]
  MIC: 2 µg/mL (≈ 4.76 µM)
Escherichia coli [4]
  Ratio: 2
Klebsiella pneumoniae [5]
  Ratio: 4
Klebsiella pneumoniae [6]
  Ratio: 4
Pseudomonas aeruginosa [26]
  MIC: 0.5 µg/mL (≈ 1.19 µM)
Pseudomonas aeruginosa [27]
  MIC: 0.25 µg/mL (≈ 0.595 µM)
Escherichia coli [7]
  Ratio: 4
Acinetobacter baumannii [28]
  MIC: 4 µg/mL (≈ 9.51 µM)
Klebsiella pneumoniae [8]
  Ratio: 2
Klebsiella pneumoniae [9]
  MIC: 4 µg/mL (≈ 9.51 µM)
Acinetobacter baumannii [29]
  MIC: 4 µg/mL (≈ 9.51 µM)
Klebsiella pneumoniae [10]
  Ratio: 8
Acinetobacter baumannii [30]
  MIC: 4 µg/mL (≈ 9.51 µM)
Acinetobacter baumannii [31]
  MIC: 8 µg/mL (≈ 19 µM)
Pseudomonas aeruginosa [32]
  MIC: 1 µg/mL (≈ 2.38 µM)
Acinetobacter baumannii [33]
  MIC: 1 µg/mL (≈ 2.38 µM)
Klebsiella pneumoniae [11]
  Ratio: 2
Escherichia coli [12]
  MIC: 0.03 µg/mL (≈ 0.0713 µM)
Klebsiella pneumoniae [13]
  Ratio: 16
Klebsiella pneumoniae [14]
  Ratio: 2
Escherichia coli [15]
  MIC: 0.03 µg/mL (≈ 0.0713 µM)
Acinetobacter baumannii [34]
  MPC: 64 µg/mL
Escherichia coli [16]
  Ratio: 4
Acinetobacter baumannii [35]
  MIC: 8 µg/mL (≈ 19 µM)
Acinetobacter baumannii [36]
  MIC: 1 µg/mL (≈ 2.38 µM)
Pseudomonas aeruginosa [37]
  MIC: 0.5 µg/mL (≈ 1.19 µM)
Pseudomonas aeruginosa [38]
  MIC: 0.25 µg/mL (≈ 0.595 µM)
Escherichia coli [17]
  Ratio: 2
Escherichia coli [18]
  Ratio: 2
Acinetobacter baumannii [39]
  MIC: 4 µg/mL (≈ 9.51 µM)
Acinetobacter baumannii [40]
  MIC: 4 µg/mL (≈ 9.51 µM)
Klebsiella pneumoniae [19]
  Ratio: 2
Pseudomonas aeruginosa [41]
  MIC: 0.125 µg/mL (≈ 0.297 µM)
Acinetobacter baumannii [42]
  MIC: 2 µg/mL (≈ 4.76 µM)
Pseudomonas aeruginosa [43]
  MIC: 1 µg/mL (≈ 2.38 µM)
Pseudomonas aeruginosa [44]
  MIC: 0.5 µg/mL (≈ 1.19 µM)
Acinetobacter baumannii [45]
  MPC: 64 µg/mL
Klebsiella pneumoniae [20]
  Ratio: >16
Escherichia coli [21]
  Ratio: 4
Klebsiella pneumoniae [22]
  Ratio: 4
Acinetobacter baumannii [46]
  MIC: 4 µg/mL (≈ 9.51 µM)
Escherichia coli [23]
  Ratio: 4
Pseudomonas aeruginosa [47]
  MIC: 0.25 µg/mL (≈ 0.595 µM)
